Assay results as given in ChEMBL document CHEMBL3132826, “Investigation of a tetrahydroisoquinoline scaffold as dual-action steroid sulfatase inhibitors generated by parallel solid-phase synthesis” (Medchemcomm, 2013).

How the values were obtained:
[1] = target: T1, Steryl-sulfatase (Homo sapiens) (UniProt P08842); experiment: Inhibition of STS (unknown origin) expressed in HEK-293 cells assessed as transformation of [3H]-E1S into E1 at 0.1 uM by […]; type: cell-based; conditions: HEK293
T1 sequence (whole entry): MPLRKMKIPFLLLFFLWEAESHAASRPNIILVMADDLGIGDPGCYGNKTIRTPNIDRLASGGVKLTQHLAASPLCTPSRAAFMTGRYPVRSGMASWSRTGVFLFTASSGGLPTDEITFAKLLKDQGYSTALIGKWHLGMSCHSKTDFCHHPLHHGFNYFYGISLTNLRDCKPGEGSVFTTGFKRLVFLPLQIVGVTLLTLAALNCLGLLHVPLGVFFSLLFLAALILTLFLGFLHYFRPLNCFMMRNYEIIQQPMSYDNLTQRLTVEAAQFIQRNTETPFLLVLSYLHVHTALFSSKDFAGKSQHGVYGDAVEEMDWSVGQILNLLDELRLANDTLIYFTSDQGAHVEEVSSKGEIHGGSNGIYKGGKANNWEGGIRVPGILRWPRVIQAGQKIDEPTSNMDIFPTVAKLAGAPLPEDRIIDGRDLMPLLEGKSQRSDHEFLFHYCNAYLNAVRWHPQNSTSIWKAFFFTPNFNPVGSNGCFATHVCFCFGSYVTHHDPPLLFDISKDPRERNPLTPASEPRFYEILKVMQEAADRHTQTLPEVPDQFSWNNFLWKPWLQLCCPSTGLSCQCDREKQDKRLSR

[2] = target: T1, Steryl-sulfatase (Homo sapiens); experiment: Inhibition of STS (unknown origin) expressed in HEK-293 cells assessed as transformation of [3H]-E1S into E1 at 1 uM by […]; type: cell-based; conditions: HEK293
MCF7 [3] = experiment: Estrogenic activity in human MCF7 cells assessed as cell proliferation at 0.01 uM by MTS assay relative to basal level; type: ADME, cell-based; conditions: mcf7, 0.01 µM
MCF7 [4] = experiment: Estrogenic activity in human MCF7 cells assessed as cell proliferation at 1 uM by MTS assay relative to basal level; type: ADME, cell-based; conditions: mcf7, 1 µM
MCF7 [5] = experiment: Estrogenic activity in human MCF7 cells assessed as cell proliferation at 0.1 uM by MTS assay relative to basal level; type: ADME, cell-based; conditions: mcf7, 0.1 µM

Row | inhibition [1] [%] | inhibition [2] [%] | SMILES | Activity (MCF7 [3]) [%] | Activity (MCF7 [4]) [%] | Activity (MCF7 [5]) [%]
1 | 8.3 | 54.8 | CCCN(CCC)c1cccc(C(=O)N2CCc3ccc(OS(N)(=O)=O)cc3C2)c1 |  |  | 
2 | 20.9 | 24.9 | CCN(Cc1cccc(Br)c1)c1cccc(C(=O)N2CCc3ccc(OS(N)(=O)=O)cc3C2)c1 |  |  | 
3 | 78.2 | 95.9 | CCN(Cc1ccc(Br)cc1)c1ccc(C(=O)N2CCc3ccc(OS(N)(=O)=O)cc3C2)cc1 |  |  | 
4 | 10.9 | 66.5 | CCN(Cc1ccc(F)cc1)c1cccc(C(=O)N2CCc3ccc(OS(N)(=O)=O)cc3C2)c1 |  |  | 
5 |  |  | O=C(c1cccc(N(Cc2ccccc2)Cc2ccco2)c1)N1CCc2ccc(O)cc2C1 | 44.9 | 80.7 | 63.3
6 |  |  | CCN(Cc1ccc(F)cc1)c1cccc(C(=O)N2CCc3ccc(O)cc3C2)c1 | 9.5 | 101.3 | 31.9
7 | 24.5 | 30.8 | CN(CCN1CCCCC1)c1cccc(C(=O)N2CCc3ccc(OS(N)(=O)=O)cc3C2)c1 |  |  | 
8 | 1.6 | 24.4 | NS(=O)(=O)Oc1ccc2c(c1)CN(C(=O)c1cccc(N3CCN(c4ncccn4)CC3)c1)CC2 |  |  | 
9 | 1 | 11.9 | NS(=O)(=O)Oc1ccc2c(c1)CN(C(=O)c1cccc(N3CCCCC3)c1)CC2 |  |  | 
10 | 5.7 | 64.3 | NS(=O)(=O)Oc1ccc2c(c1)CN(C(=O)c1ccc(N(CCCO)Cc3ccccc3)cc1)CC2 |  |  | 
11 | 27.5 | 90.5 | NS(=O)(=O)Oc1ccc2c(c1)CN(C(=O)c1cccc(N(Cc3ccccc3)Cc3ccco3)c1)CC2 |  |  | 
12 | 80.2 | 97.2 | CCN(Cc1cccc(Br)c1)c1ccc(C(=O)N2CCc3ccc(OS(N)(=O)=O)cc3C2)cc1 |  |  | 
13 | 3.8 | 15.9 | CN(C)CCN(CCN(C)C)c1ccc(C(=O)N2CCc3ccc(OS(N)(=O)=O)cc3C2)cc1 |  |  | 
14 | 8.5 | 53.7 | NS(=O)(=O)Oc1ccc2c(c1)CN(C(=O)c1ccc(N3CCC(N4CCCCC4)CC3)cc1)CC2 |  |  | 
15 |  |  | CCCN(Cc1ccccc1)c1ccc(C(=O)N2CCc3ccc(O)cc3C2)cc1 | 0 | 8.9 | 0
16 |  |  | CC(C)CCN(CCC(C)C)c1cccc(C(=O)N2CCc3ccc(O)cc3C2)c1 | 0 | 10.6 | 0
17 | 0.3 | 26.8 | CN(CCN1CCCCC1)c1ccc(C(=O)N2CCc3ccc(OS(N)(=O)=O)cc3C2)cc1 |  |  | 
18 |  |  | O=C(c1cccc(N(CCCO)Cc2ccccc2)c1)N1CCc2ccc(O)cc2C1 | 0 | 94.2 | 14.2
19 | 56 | 83 | NS(=O)(=O)Oc1ccc2c(c1)CN(C(=O)c1ccc(N3CCc4ccccc4C3)cc1)CC2 |  |  | 
20 | 25.8 | 37.3 | NS(=O)(=O)Oc1ccc2c(c1)CN(C(=O)c1cccc(N(CCCO)Cc3ccccc3)c1)CC2 |  |  | 
21 | 0 | 8 | NS(=O)(=O)Oc1ccc2c(c1)CN(C(=O)c1cccc(N3CCC(N4CCCCC4)CC3)c1)CC2 |  |  | 

Row | inhibition [1] [%] | inhibition [2] [%] | SMILES | Activity (MCF7 [3]) [%] | Activity (MCF7 [4]) [%] | Activity (MCF7 [5]) [%]
22 | 69.1 | 91.2 | CCN(Cc1ccc(F)cc1)c1ccc(C(=O)N2CCc3ccc(OS(N)(=O)=O)cc3C2)cc1 |  |  | 
23 | 64.8 | 94.3 | CCCN(Cc1ccccc1)c1ccc(C(=O)N2CCc3ccc(OS(N)(=O)=O)cc3C2)cc1 |  |  | 
24 |  |  | O=C(c1cccc(N2CCc3ccccc3C2)c1)N1CCc2ccc(O)cc2C1 | 0 | 14.7 | 0
25 | 0 | 23.7 | NS(=O)(=O)Oc1ccc2c(c1)CN(C(=O)c1cccc(N3CCN(Cc4ccccc4)CC3)c1)CC2 |  |  | 
26 | 10.9 | 50.6 | NS(=O)(=O)Oc1ccc2c(c1)CN(C(=O)c1ccc(N3CCOCC3)cc1)CC2 |  |  | 
27 |  |  | CN(C)CCN(CCN(C)C)c1ccc(C(=O)N2CCc3ccc(O)cc3C2)cc1 | 0 | 4.5 | 0
28 |  |  | O=C(c1cccc(N(CCO)Cc2ccccc2)c1)N1CCc2ccc(O)cc2C1 | 0.5 | 12 | 3
29 | 27.9 | 78 | NS(=O)(=O)Oc1ccc2c(c1)CN(C(=O)c1ccc(N(CCO)Cc3ccccc3)cc1)CC2 |  |  | 
30 |  |  | CN(C)CCN(Cc1ccccc1)c1cccc(C(=O)N2CCc3ccc(O)cc3C2)c1 | 4.1 | 30.5 | 7.4
31 | 0 | 17.1 | CN(C)CCN(CCN(C)C)c1cccc(C(=O)N2CCc3ccc(OS(N)(=O)=O)cc3C2)c1 |  |  | 
32 | 2.9 | 23.3 | CN1CCN(c2ccc(C(=O)N3CCc4ccc(OS(N)(=O)=O)cc4C3)cc2)CC1 |  |  | 
33 | 26.7 | 32.4 | NS(=O)(=O)Oc1ccc2c(c1)CN(C(=O)c1cccc(N(CCO)Cc3ccccc3)c1)CC2 |  |  | 
34 | 17.3 | 69 | CCN(Cc1ccccc1)c1cccc(C(=O)N2CCc3ccc(OS(N)(=O)=O)cc3C2)c1 |  |  | 
35 | 23.1 | 67.4 | CCCN(Cc1ccccc1)c1cccc(C(=O)N2CCc3ccc(OS(N)(=O)=O)cc3C2)c1 |  |  | 
36 | 0 | 20.9 | NS(=O)(=O)Oc1ccc2c(c1)CN(C(=O)c1cccc(N3CCOCC3)c1)CC2 |  |  | 
37 | 20.8 | 75.8 | NS(=O)(=O)Oc1ccc2c(c1)CN(C(=O)c1ccc(N3CCN(Cc4ccccc4)CC3)cc1)CC2 |  |  | 
38 | 10 | 31 | CCN(Cc1ccccc1)Cc1ccc(S(=O)(=O)N2CCc3ccc(OS(N)(=O)=O)cc3C2)cc1 |  |  | 
39 | 0 | 28.6 | CN(C)CCN(Cc1ccccc1)c1cccc(C(=O)N2CCc3ccc(OS(N)(=O)=O)cc3C2)c1 |  |  | 
40 | 17.4 | 40.7 | CN(CCCN1CCCCC1)c1ccc(C(=O)N2CCc3ccc(OS(N)(=O)=O)cc3C2)cc1 |  |  | 
41 | 47 | 86.6 | CCN(Cc1ccncc1)c1ccc(C(=O)N2CCc3ccc(OS(N)(=O)=O)cc3C2)cc1 |  |  | 
42 | 0 | 12.6 | CN1CCN(c2cccc(C(=O)N3CCc4ccc(OS(N)(=O)=O)cc4C3)c2)CC1 |  |  | 

Row | inhibition [1] [%] | inhibition [2] [%] | SMILES | Activity (MCF7 [3]) [%] | Activity (MCF7 [4]) [%] | Activity (MCF7 [5]) [%]
43 | 11.5 | 38.3 | NS(=O)(=O)Oc1ccc2c(c1)CN(C(=O)c1ccc(N3CCCCC3)cc1)CC2 |  |  | 
44 | 24.2 | 84.5 | CCN(Cc1ccc(Br)cc1)c1cccc(C(=O)N2CCc3ccc(OS(N)(=O)=O)cc3C2)c1 |  |  | 
45 | 1 | 17 | CCN(Cc1ccccc1)Cc1ccc(CN2CCc3ccc(OS(N)(=O)=O)cc3C2)cc1 |  |  | 
46 | 14.7 | 41.9 | NS(=O)(=O)Oc1ccc2c(c1)CN(C(=O)c1ccc(N3CCN(c4ncccn4)CC3)cc1)CC2 |  |  | 
47 | 24.1 | 30.6 | CN(CCCN1CCCCC1)c1cccc(C(=O)N2CCc3ccc(OS(N)(=O)=O)cc3C2)c1 |  |  | 
48 | 24.1 | 50.2 | NS(=O)(=O)Oc1ccc2c(c1)CN(C(=O)c1cccc(N3CCc4ccccc4C3)c1)CC2 |  |  | 
49 | 14.3 | 33.5 | CCN(Cc1cccnc1)c1cccc(C(=O)N2CCc3ccc(OS(N)(=O)=O)cc3C2)c1 |  |  | 
50 | 6.5 | 19.9 | CCN(Cc1ccccn1)c1cccc(C(=O)N2CCc3ccc(OS(N)(=O)=O)cc3C2)c1 |  |  | 
51 | 32.3 | 75.9 | CC(C)CCN(CCC(C)C)c1cccc(C(=O)N2CCc3ccc(OS(N)(=O)=O)cc3C2)c1 |  |  | 
52 | 2.3 | 39.6 | NS(=O)(=O)Oc1ccc2c(c1)CN(C(=O)c1cccc(N3CCSCC3)c1)CC2 |  |  | 
53 | 1.4 | 41.9 | NS(=O)(=O)Oc1ccc2c(c1)CN(C(=O)c1cccc(N3CCC(Cc4ccccc4)CC3)c1)CC2 |  |  | 
54 | 32.3 | 80.2 | NS(=O)(=O)Oc1ccc2c(c1)CN(C(=O)c1ccc(N3CCSCC3)cc1)CC2 |  |  | 
55 | 23.8 | 26 | CN(C)CCCN(Cc1ccccc1)c1cccc(C(=O)N2CCc3ccc(OS(N)(=O)=O)cc3C2)c1 |  |  | 
56 | 90.8 | 98.2 | NS(=O)(=O)Oc1ccc2c(c1)CN(C(=O)c1ccc(N(Cc3ccccc3)Cc3ccco3)cc1)CC2 |  |  | 
57 | 16.2 | 61.6 | CN(C)CCCN(Cc1ccccc1)c1ccc(C(=O)N2CCc3ccc(OS(N)(=O)=O)cc3C2)cc1 |  |  | 
58 | 42.5 | 87.7 | CCN(Cc1ccccn1)c1ccc(C(=O)N2CCc3ccc(OS(N)(=O)=O)cc3C2)cc1 |  |  | 
59 | 13.9 | 57.8 | CN(C)CCN(Cc1ccccc1)c1ccc(C(=O)N2CCc3ccc(OS(N)(=O)=O)cc3C2)cc1 |  |  | 
60 | 35.7 | 85.2 | CCN(Cc1cccnc1)c1ccc(C(=O)N2CCc3ccc(OS(N)(=O)=O)cc3C2)cc1 |  |  | 
61 | 47 | 90.8 | CC(C)CCN(CCC(C)C)c1ccc(C(=O)N2CCc3ccc(OS(N)(=O)=O)cc3C2)cc1 |  |  | 
62 | 33.3 | 52.8 | CCN(Cc1ccncc1)c1cccc(C(=O)N2CCc3ccc(OS(N)(=O)=O)cc3C2)c1 |  |  | 
